Measured values taken from US11214561B2, “Histone methyltransferase EZH2 inhibitor, preparation method and pharmaceutical use thereof” (ANCUREALL PHARMACEUTICAL (SHANGHAI) CO., LTD., priority 2017, dated 2022).

Key:
SU-DHL-8 (EZH2 WT) = experiment: In vitro 50% growth inhibition (GI50), MTT/CCK8, SU-DHL-8 cells; assay type: cell-based; conditions: Homo sapiens, SU-DHL-8, 144 h; Drug treatment for 6 days
[1] = tested on: EZH2 A677G mutant positive-expressing tumor cell line Pfeiffer; experiment: In vivo growth inhibition, Pfeiffer subcutaneous transplantation model; conditions: for Tumor volume: 200 mg/kg orally once a day
From the text: Test Example 2 Determination of the in vivo growth inhibition activity of the present compounds on EZH2 A677G mutant positive-expressing tumor cell line Pfeiffer NOD/SCID mice were subcutaneously inoculated with human diffuse large cell B lymphoma lymphocyte Pfeiffer (ATCC) expressing EZH2 A677G mutant protein to establish a subcutaneous transplantation model of human B cell lymphoma.
Experimental animals: NOD/SCID mice, female, 9 weeks (weeks of age when tumor cell inoculation), average weight 20.3 g, 18 mice, were purchased from Shanghai Lingchang biotechnology co., Ltd. with animal certificate No.: 2002007656. The breeding environment was SPF grade.
Test samples: the present example compounds 34 (purity: 99.03%) and 35 (purity: 97.6%), solid powder, preserved at −20° C.
Pfeiffer cells were cultured in RPM1640 medium containing 10% of fetal bovine serum. Log-phase Pfeiffer cells were collected and resuspended with PBS to 1×10^8 cells per ml for subcutaneous inoculation in NOD/SCID mice.
All the mice were treated with Co60 irradiation at a dose of 200 rad the day before the inoculation, and 1×10^7 Pfeiffer cells were then subcutaneously inoculated at the right back, and the cells were resuspended in 1:1 PBS and Matrigel (0.1 ml/mouse). When the average tumor volume was 134 mm^3, the mice were randomly grouped according to tumor size. Tumor volume was calculated as: long diameter×short diameter^2/2. The day of tumor cells inoculation was defined as day 0. The test was divided into solvent control group and drug treatment group (compound 34 group and compound 35 group). 6 mice for each group were given orally once a day for a total of 4 weeks. Efficacy was assessed based on relative tumor growth inhibition value (TGI), and safety was assessed based on animal weight change and mortality.
Preparation of test samples: compounds 34 or 35 was weighed and mixed with ultrapure water, and methanesulfonic acid was added for clarification. The PH value was about 1.64 at this moment. 4M NaOH was then added to adjust the PH to 3.5 and bring to volume by ultrapure water, the final concentrations was 20 mg/ml. Determination standard: TGI (%): […].
T/C % refers to the relative value-added rate of tumor, that is, the percentage value of relative tumor volume or tumor weight for the treatment group and the control group at a certain point. T and C were the relative tumor volumes (RTV) of the treatment group and the control group at a specific point, respectively. The calculation formula is as follows: T/C%=TRTV/CRTV*100% TRTV: mean RTV of the treatment group; CRTV: mean RTV of solvent control group; RTV=Vt/V0, V0 was the tumor volume of the animal when grouping, Vt was the tumor volume of the animal after treatment. Statistical analysis: all test results were defined as mean tumor volume±SEM (mean standard error). Tumor volume data of 27 days after the start of treatment were selected for statistical analysis among different groups, and independent sample T test was used to compare whether there were significant differences in tumor volume between the treatment group and the control group. All data were analyzed using SPSS 18.0. P<0.05 was considered as significant difference.

Karpas-422 (EZH2 Y641N) = experiment: In vitro 50% growth inhibition (GI50), MTT/CCK8, Karpas-422 cells; assay type: cell-based; conditions: Homo sapiens, KARPAS-422, 144 h; Drug treatment for 6 days
Pfeiffer (EZH2 A677G) = experiment: In vitro 50% growth inhibition (GI50), MTT/CCK8, Pfeiffer cells; assay type: cell-based, Human; conditions: Homo sapiens, Pfeiffer, 240 h; Drug treatment for 10 days
[2] = tested on: Pfeiffer cells (EZH2 A677G); experiment: Compound washout effect on in vitro growth of Pfeiffer cells (irreversible inhibition); assay type: cell-based, Human; conditions: for Pfeiffer cells growth rate (%) (10 days), Continuous: continuous treatment; for Pfeiffer cells growth rate (%) (10 days), Washout: washout after 12 h
Protocol: The test of the compound washout effect on the in vitro growth inhibition of human diffuse large cell B lymphoma lymphocyte Pfeiffer (ATCC) expressing EZH2 A677G mutant protein was performed as follows.
Log-phase Pfeiffer cells were centrifuged directly (1700 rpm, 3 min), and the supernatant was discarded and the cells were counted. Cells were prepared with the complete medium (2×10^4 cells per ml), inoculated to 96-well plates (Corning), 200 μl per well, and incubated overnight at 37° C., 5% CO2. […] The cells were further cultured for 12 h. The cells in half of the test wells were then collected by centrifugation (parallel to 2 wells), and washed three times with serum-free cell culture medium, and then resuspended in a same volume of complete cell culture medium (200 μl). It was further cultured together with the untreated cells for 10 days at 37° C., 5% CO2.

[3] = 200 mg/kg, 27th day after the start of treatment
[4] = 200 mg/kg, 27 days after the start of treatment

C=CC(=O)N1CCC(N(CC)c2cc(-c3ccc(CN4CCCCC4)cc3)cc(C(=O)NCc3c(C)cc(C)[nH]c3=O)c2C)CC1 [Example 34, N-(4,6-dimethyl-2-oxo-1,2-dihydro-pyridin-3-ylmethyl)-5-[(1-acryloyl-piperidin-4-yl)-ethyl-amino]-4-methyl-4′-(piperidin-1-ylmethyl)-[1,1′-biphenyl]-3-carboxamide]
GI50 (SU-DHL-8 (EZH2 WT)): > 1000 nM | body weight during the treatment ([1]; 200 mg/kg dose): maintained a stable body weight | tolerability ([1]; 200 mg/kg dose): well tolerated | Tumor volume ([1]; Day 0 after the start of treatment): 135 ± 10 mm^3 | Tumor volume ([1]; Day 3 after the start of treatment): 298 ± 25 mm^3 | Tumor volume ([1]; Day 7 after the start of treatment): 439 ± 48 mm^3 | Tumor volume ([1]; Day 10 after the start of treatment): 441 ± 56 mm^3 | Tumor volume ([1]; Day 14 after the start of treatment): 381 ± 39 mm^3 | Tumor volume ([1]; Day 17 after the start of treatment): 472 ± 100 mm^3 | Tumor volume ([1]; Day 21 after the start of treatment): 477 ± 158 mm^3 | Tumor volume ([1]; Day 24 after the start of treatment): 570 ± 154 mm^3 | Tumor volume ([1]; Day 27 after the start of treatment, listed as Compound 34): 538 ± 199 mm^3 | Tumor volume ([1]; Day 27 after the start of treatment, listed as compound 34): 538 mm^3 | RTV (x ± S), relative tumor volume [1, 3]: 4.7 ± 2.3 | T/C (%), relative tumor volume [1, 3]: 32.9% | TGI (%), relative tumor volume [1, 3]: 67.1% | T/C (%), tumor weight [1, 4]: 23.4% | TGI, tumor weight [1, 4]: 76.6% | Tumor weight (mg) (x ± S) [1, 4]: 264 ± 113 mg | anti-tumor effect, in words ([1]; 200 mg/kg, versus solvent control group): significant anti-tumor effects | GI50 (Karpas-422 (EZH2 Y641N)): 10 to 100 nM | GI50 (Pfeiffer (EZH2 A677G)): 1 to 10 nM | Pfeiffer cells growth rate (%) (10 days), Continuous ([2]; Drug concentration 25 nM): 0% | Pfeiffer cells growth rate (%) (10 days), Washout ([2]; Drug concentration 25 nM): 0% | Pfeiffer cells growth rate (%) (10 days), Continuous ([2]; Drug concentration 50 nM): 0% | Pfeiffer cells growth rate (%) (10 days), Washout ([2]; Drug concentration 50 nM): 0% | Pfeiffer cells growth rate (%) (10 days), Continuous ([2]; Drug concentration 100 nM): 0% | Pfeiffer cells growth rate (%) (10 days), Washout ([2]; Drug concentration 100 nM): 0% | reversibility of inhibitory effect on cell growth in vitro, in words ([2]; washout treatment of Pfeiffer cells): potential irreversible inhibitory effect
